From US5968956A, “Substituted piperidine derivative and medicine comprising the same” (SS Pharmaceutical Co., Ltd., priority 1995, dated 1999)
Structures can show the parent of a compound that is named as a salt.

How the values were obtained:
[1] = system: bladder specimens enucleated from rats; assay: Anticholinergic effect on bladder specimens enucleated from rats (contraction caused by acetylcholine); format: cell-based, rat (male S. D.); details: Rattus norvegicus; inhibition of contraction caused by acetylcholine (10^-5 M); Tyrode's solution 32° C.; agent applied 5 minutes before
Method: Anticholinergic effect on bladder specimens enucleated from rats:
(§1) Male S. D. rats weighing 220-450 g were exsanguinated to death to enucleate their bladders, thereby preparing vertically split specimens (3-5 mm wide by 10-15 mm long) with each triangular part removed therefrom. Each of the specimens was suspended in a Magnus bath filled with a Tyrode's solution (32° C.) aerated by a mixed gas (95% O2, 5% CO2) with a load of 0.5 g applied thereto. The response of the specimen was recorded in terms of isometric contraction through a tension transducer. After the stability of the specimen was attained, an effect on contraction caused by acetylcholine (10^-5 M) was investigated. Incidentally, agents to be tested were applied to the individual specimens in advance for 5 minutes before the test to investigate their effects.

[2] = system: bladder specimens enucleated from rats; assay: Calcium antagonism against bladder specimens enucleated from rats (contraction caused by calcium chloride); format: cell-based, rat (male S. D.); details: Rattus norvegicus; inhibition of contraction caused by 10^-3 M calcium chloride after Ca removal with 1 mM EDTA; cumulative application; corrected for spontaneous relaxation
Method: as §1
Calcium antagonism against bladder specimens enucleated from rats:
After removal of calcium ion in specimens prepared in accordance with the testing method of Test Example 1 by adding 1 mM EDTA, 10^-3 M calcium chloride was applied to the specimens. After contraction caused by calcium chloride was stable, each of agents to be tested was applied cumulatively to the specimen. Assuming that the contraction upon the first application of the test agent was 100%, a value obtained by subtracting a spontaneous relaxation rage of a specimen, to which no agent was applied, from an inhibiting rate upon the application of the agent of varied concentrations was regarded as a contraction inhibiting rate.

SMILES | IC50 [1] [nM] | IC30 [2] [nM]
O=C(NC1CCN(Cc2ccccc2)CC1)C(O)(c1ccccc1)C1CCCCC1 (stereo not shown) [Compound 1] | 32 | 2660
CN1CCC(NC(=O)C(O)(c2ccccc2)C2CCCCC2)CC1 (stereo not shown) [Compound 2] | 434 | –
O=C(NC1CCN(Cc2ccccc2)CC1)C(O)(c1ccccc1)C1CC1 (stereo not shown) [Compound 3] | 27 | 26600
O=C(NC1CCN(Cc2ccccc2)CC1)C(O)(c1ccccc1)C1CCCC1 (stereo not shown) [Compound 4] | 33.6 | 2850
COc1ccc(C(O)(C(=O)NC2CCN(Cc3ccccc3)CC2)C2CCCC2)cc1 (stereo not shown) [Compound 15] | 130 | –
CC(C)C(O)(C(=O)NC1CCN(Cc2ccccc2)CC1)c1ccccc1 (stereo not shown) [Compound 23] | 66 | –
COc1cccc(C(O)(C(=O)NC2CCN(Cc3ccccc3)CC2)C2CCCC2)c1 (stereo not shown) [Compound 29] | 850 | –
CC(C)C(O)(C(=O)NC1CCN(Cc2ccccc2)CC1)c1cccc(Cl)c1 (stereo not shown) [Compound 34] | 280 | –
O=C(NC1CCN(Cc2ccccc2)CC1)C(O)(c1cccc(Cl)c1)C1CCCC1 (stereo not shown) [Compound 35] | 200 | –
O=C(NC1CCN(Cc2ccccc2)CC1)C(O)(c1ccccn1)C1CCCC1 (stereo not shown) [Compound 49] | 6.5 | –
Cc1ccc(C(O)(C(=O)NC2CCN(Cc3ccccc3)CC2)C(C)C)cc1 (stereo not shown) [Compound 56] | 168 | –
CCCOC(C(=O)OC1CCN(C)CC1)(c1ccccc1)c1ccccc1 [Propiverine hydrochloride, reference compound] | 784 | 12100
